The NIST ThermoML archive (doi:10.1021/je4009238)

Assay: xn = mol fraction of the nth substance listed
Settings: 101 kPa, Liquid

CCCCn1cc[n+](C)c1.[Cl-] [1-butyl-3-methylimidazolium chloride] + CN(C)C=O
Settings	mass density, 288.15 K [kg/m3]	mass density, 298.15 K [kg/m3]	mass density, 308.15 K [kg/m3]	viscosity, 288.15 K [mPa·s]	viscosity, 298.15 K [mPa·s]	viscosity, 308.15 K [mPa·s]
x1 = 0.0086	957.7	948.35	938.9	1.064	0.9285	0.8223
x1 = 0.0172	961.03	951.98	942.61	1.13	0.9836	0.8668
x1 = 0.026	964.09	954.91	945.63	1.234	1.069	0.9394
x1 = 0.0351	967.36	958.49	949.34	1.358	1.173	1.022
x1 = 0.0443	970.51	961.51	952.42	1.441	1.234	1.097
x1 = 0.0541	973.65	964.75	955.77	1.571	1.343	1.166
x1 = 0.0638	976.87	968.06	959.15	1.678	1.444	1.239
x1 = 0.0738	979.65	970.86	962.05	1.865	1.59	1.362
x1 = 0.0841	982.76	974.08	965.29	2.004	1.679	1.432
x1 = 0.0947	985.77	977.24	968.56	2.24	1.8	1.524
x1 = 0.1056	988.72	980.16	971.53	2.397	1.978	1.665
x1 = 0.1167	991.56	983.01	974.49	2.589	2.126	1.782
x1 = 0.1282	994.51	986.1	977.64	2.95	2.379	1.963
x1 = 0.1399	997.33	988.96	980.61	3.196	2.582	2.135
x1 = 0.152	1000.15	991.87	983.6	3.685	2.907	2.351
